Measurements published in US11161881B2, “Composition comprising a peptide and an inhibitor of viral neuraminidase” (priority 2010, dated 2021).

Assays:
[1] = tested on: interleukin-6 (IL-6) release from fresh human whole blood; test: Ex vivo release of interleukin-6 from fresh human whole blood (ELISA); format: cell-based; conditions: for concentration of IL-6: human whole blood cultures, 24 hours, n = 5
From the text: Ex vivo assessment of proinflammatory properties of the AP301 peptide in human whole blood. […] In this study, fresh human whole blood has been used, as it represents an approved predictive model system for the assessment of inflammatory response in vivo.
Summary of methodology. It was the goal of this study to determine the proinflammatory signalling capacity of the peptide AP301. Whole blood cultures were used and the secretion of interleukin-6 (IL-6), a very sensitive marker for proinflammatory stimulation, was quantified by ELISA.
Test system 25 ml of freshly taken heparinized blood from • 5 healthy volunteers (HV) was used in the tests. […]
Whole blood cultures. Whole blood (WB) cultures are performed by pipetting 1 ml WB into wells of 24-well-plates. In each experiment, unstimulated and control-stimulated cultures were included.
If possible, the substances and stimulants to be investigated were always added in an identical volume to each well of a given experiment, which is not greater than 10% of the total volume contained in a well. Unstimulated controls received PBS. Volume adjustments and dilutions for different treatments were also done with PBS.
The content of each well was mixed and the plates incubated at 37° C. and 5% CO2 for 24 hours. After incubation the content of each well was transferred to a fresh 1.5 ml microtube and centrifuged at 8,000-9,000×g for 15 minutes. The supernatant of each sample was transferred individually to two 1.5 ml microtubes and kept at −20° C. until use.
Detection of interleukin-6. Interleukin-6 was quantified by a specific ELISA (Human IL-6 ELISA Set, BD Biosciences, Cat. No. 555220) employing an anti-human IL-6 antibody as capture antibody, a biotinylated anti-human IL-6 detection antibody, avidin-horseradish peroxidase conjugate as enzyme reagent and recombinant IL-6 as standard. Absorbance measurement was performed at 450 nm using the Packard FusionReader.
Data analysis. The results for each plate were stored and evaluated using the FusionDataAnalysis Software. […]

[2] = tested on: influenza strain A (PR8/34); test: Relative lung weight as a measure of pulmonary inflammation in mice infected with influenza A; format: in vivo, mice (strain C57BL/6); conditions: repeated on days 2 and 4
Procedure: Infection with influenza virus causes the development of a pulmonary inflammation. Laboratory mice (strain C57BL/6, 8 weeks old) were infected per-nasal with the influenza strain A (PR8/34) at a dose of 150 PFU. On days 3, 5, 7 and 9 following the infection, the lungs were taken out of 8 mice, respectively, and the relative lung weight was determined as a measure of the pulmonary inflammation.
Treatment of the pulmonary inflammation by administering the neuraminidase inhibitor or administering a combination of neuraminidase inhibitor and peptide AP301. Laboratory mice (strain C57BL/6, 8 weeks old) were infected per-nasal with the influenza strain A (PR8/34) at a dose of 150 PFU. Subsequently, each test animal received an oral administration of 10 mg/kg Oseltamivir (neuraminidase inhibitor) and an intratracheal administration of 10 μg/test animal of peptide AP301. The treatment was repeated on test days 2 and 4. On days 5, 7 and 9 following the infection, the lungs were taken out of 30 mice, respectively, and the relative lung weight was determined as a measure of the pulmonary inflammation. The results are shown graphically in FIG. 2. […]
On days 7 and 9 following the infection, the lungs were taken out of 20 mice, respectively, and the relative lung weight was determined as a measure of the pulmonary inflammation. […]

In the case of `C[C@@H]1NC(=O)CNC(=O)[C@H](CCC(=O)O)NC(=O)[C@@H]2CCCN2C(=O)[C@H]([C@@H](C)O)NC(=O)[C@H](CCC(=O)O)NC(=O)[C@H](CCCNC(=N)N)NC(=O)[C@H](CCC(N)=O)NC(=O)CNC(=O)[C@@H](N)CSSC[C@@H](C(=O)O)NC(=O)[C@H](Cc2ccc(O)cc2)NC(=O)[C@H](Cc2c[nH]c3ccccc23)NC(=O)[C@@H]2CCCN2C(=O)[C@H](CCCCN)NC(=O)[C@H](C)NC(=O)[C@H](CCC(=O)O)NC1=O` [AP301, (NH2) Cys-Gly-Gln-Arg-Glu-Thr-Pro-Glu-Gly-Ala-Glu-Ala-Lys-Pro-Trp-Tyr-Cys (COOH)], the “induction of IL-6 secretion (in words)” value ([1]; all concentrations tested (10 μg/ml to 1 ng/ml for peptide; high and low doses of LPS), five healthy donors) is reported as “did not induce any detectable level of IL-6 secretion”, the “TNF receptor binding activity / proinflammatory response (concluded from IL-6 release)” value ([1]; ex vivo human whole blood model) is reported as “does not exhibit any TNF receptor binding activity” and the “concentration of IL-6” value ([1]; test item concentration 1 ng/ml) is reported as “less than 0.5 pg/ml”. For the same compound, the “concentration of IL-6” value ([1]; test item concentration 3 ng/ml) was “less than 0.5 pg/ml”, the “concentration of IL-6” value ([1]; test item concentration 1 mg/ml) was “less than 0.5 pg/ml” and the “concentration of IL-6” value ([1]; test item concentration 10 mg/ml) was “less than 0.5 pg/ml”.
With `CC(=O)N[C@H]1[C@H]([C@H](O)[C@H](O)CO)OC(C(=O)O)=C[C@@H]1N=C(N)N` [Zanamivir] the “reduction of pulmonary inflammation, as measured by the lung weight” value ([2]; Example 4: 150 PFU per-nasal, Zanamivir 1.5 mg/kg nasal, AP301 50 μg/test animal intratracheal, lungs on days 7 and 9) was “just a moderate effect on reducing the pulmonary inflammation”.
`CCOC(=O)C1=C[C@@H](OC(CC)CC)[C@H](NC(C)=O)[C@@H](N)C1` [Oseltamivir] was tested, and the “reduction of pulmonary inflammation, as measured by the lung weight” value ([2]; Example 2: 150 PFU per-nasal, Oseltamivir 10 mg/kg oral, AP301 10 μg/test animal intratracheal, lungs on days 5, 7 and 9) was “just a moderate effect on reducing the pulmonary inflammation”.
